Measurements from patent US8853246B2 (Dow AgroSciences LLC, priority 2009, dated 2014).
Read-outs that look alike come from different tables or passages of the source.

Legend:
[1] = tested on: Green Peach Aphid (Myzus Persicae); experiment: Insecticidal test for green peach aphid in foliar spray assay (col. MYZUPE); type: in vivo; conditions: for pest or weed control at 200 ppm: Myzus persicae, 72 h, read-out: MYZUPE 200 ppm (Corrected % Control, rating)
Description: (§1) The compounds were tested against cotton aphid, green peach aphid, and sweet potato whitefly using procedures described in the following examples and reported in Table 2.
(§2) In each case of Table 2, the rating scale is as follows at 200 ppm.
Insecticidal Test for Green Peach Aphid (Myzus Persicae) in Foliar Spray Assay
Cabbage seedlings grown in 3-inch pots, with 2-3 small (3-5 cm) true leaves, were used as test substrate. The seedlings were infested with 20-50 green peach aphids (wingless adult and nymph) one day prior to chemical application. Four pots with individual seedlings were used for each treatment. Compounds (2 mg) were dissolved in 2 mL of acetone/methanol (1:1) solvent, forming stock solutions of 1000 ppm. The stock solutions were diluted 5× with 0.025% Tween 20 in H2O to obtain a test solution at 200 ppm. A hand-held Devilbiss sprayer was used for spraying a solution to both sides of cabbage leaves until runoff. Reference plants (solvent check) were sprayed with the diluent only. Treated plants were held in a holding room for three days at approximately 25° C. and 40% relative humidity (RH) prior to grading. Evaluation was conducted by counting the number of live aphids per plant under a microscope. Corrected % Control=100*(X−Y)/X • where X=No. of live aphids on solvent check plants • Y=No. of live aphids on treated plants

[2] = tested on: Sweetpotato Whitefly-Crawler (Bemisia Tabaci); experiment: Insecticidal test for sweetpotato whitefly-crawler in foliar spray assay (col. BEMITA); type: in vivo; conditions: for pest or weed control at 200 ppm: Bemisia tabaci, read-out: BEMITA 200 ppm (Corrected % Control, rating)
Description: as §1, §2
Insecticidal Test for Sweetpotato Whitefly-Crawler (Bemisia Tabaci) in Foliar Spray Assay
Cotton plants grown in 3-inch pots, with 1 small (3-5 cm) true leaf, were used as test substrate. The plants were placed in a room with whitefly adults. Adults were allowed to deposit eggs for 2-3 days. After a 2-3 day egg-laying period, plants were taken from the adult whitefly room. Adults were blown off leaves using a hand-held Devilbiss sprayer (23 psi). Plants with egg infestation (100-300 eggs per plant) were placed in a holding room for 5-6 days at 82° F. and 50% RH for egg hatch and crawler stage to develop. Four cotton plants were used for each treatment. Compounds (2 mg) were dissolved in 1 mL of acetone solvent, forming stock solutions of 2000 ppm. The stock solutions were diluted 10× with 0.025% Tween 20 in H2O to obtain a test solution at 200 ppm. A hand-held Devilbiss sprayer was used for spraying a solution to both sides of cotton leaf until runoff. Reference plants (solvent check) were sprayed with the diluent only. Treated plants were held in a holding room for 8-9 days at approximately 82° F. and 50% RH prior to grading. Evaluation was conducted by counting the number of live nymphs per plant under a microscope. Insecticidal activity was measured by using Abbott's correction formula and presented in Table 2 (see col. “BEMITA”): Corrected % Control=100*(X−Y)/X • where X=No. of live nymphs on solvent check plants • Y=No. of live nymphs on treated plants Pesticidally Acceptable Acid Addition Salts, Salt Derivatives, Solvates, Ester Derivatives, Polymorphs, Isotopes and Radionuclides

| Structure (SMILES) | pest or weed control at 200 ppm ([1]; green peach aphid) | pest or weed control at 200 ppm ([2]; sweetpotato whitefly-crawler) | other results |
| --- | --- | --- | --- |
| CSCCNC(=O)N(C)c1cnc(-c2cncc(F)c2)s1 [Compound 72, [2-(5-fluoropyridin-3-yl)-thiazol-5-yl]-1-methyl-3-(2-methylsulfanyl-ethyl)urea] | 80 to 100% | < 80% |  |
| Cc1nc(-c2cccnc2)sc1N(C)C(=O)c1ccns1 [Compound 345] |  |  | MYZUPE 200 ppm (Corrected % Control, rating) ([1]; green peach aphid): A (80-100); BEMITA 200 ppm (Corrected % Control, rating) ([2]; sweetpotato whitefly-crawler): A (80-100) |
| CSC(C)C(C)C(=O)N(C)c1sc(-c2cncc(F)c2)nc1C (centres unmarked) [Compound 215] | 80 to 100% | 80 to 100% |  |
| Cc1cc(C(=O)Nc2sc(-c3cccnc3)nc2C)ccn1 [Compound 406] | 80 to 100% | < 80% |  |
| CCN(C(=O)CC(C)[S+](C)[O-])c1sc(-c2cccnc2)nc1Cl (centres unmarked) [Compound 524] |  |  | pest or weed control at 200 ppm ([1]; Abbott's correction formula): 80 to 100%; pest or weed control at 200 ppm ([2]; Abbott's correction formula): 80 to 100% |
| CCOC(=O)N1CCCC(C(=O)N(C)c2sc(-c3cncc(F)c3)nc2C)C1 (centres unmarked) [Compound 586] |  |  | pest or weed control at 200 ppm ([1]; Abbott's correction formula): 80 to 100%; pest or weed control at 200 ppm ([2]; Abbott's correction formula): 80 to 100% |
| Cc1nc(-c2cccnc2)sc1N(CC(C)C)C(=O)OC(C)(C)C [Compound 14, Isobutyl-(4-methyl-2-pyridin-3-yl-thiazol-5-yl)-carbamic acid tert-butyl ester] | < 80% | 80 to 100% |  |
| CCN(C(=O)C(C)c1ccc(Cl)cc1)c1sc(-c2cccnc2)nc1Cl (centres unmarked) [Compound 540] |  |  | pest or weed control at 200 ppm ([1]; Abbott's correction formula): 80 to 100%; pest or weed control at 200 ppm ([2]; Abbott's correction formula): 80 to 100% |
| CCc1nc(-c2cccnc2)sc1N(C)C(=O)C(C)C [Compound 48] | 80 to 100% | 80 to 100% |  |
| CSCC(C)C(=O)N(COC(=O)c1ccccc1)c1sc(-c2cccnc2)nc1C (centres unmarked) [Compound 203, Benzoic acid [(2-methyl-3-methylsulfanyl-propionyl)-(4-methyl-2-pyridin-3-yl-thiazol-5-yl)-amino]-methyl ester] | 80 to 100% | 80 to 100% |  |
| CCN(C(=O)CCS(C)(=O)=O)c1sc(-c2cncc(F)c2)nc1C [Compound 257] |  |  | MYZUPE 200 ppm (Corrected % Control, rating) ([1]; green peach aphid): A (80-100); BEMITA 200 ppm (Corrected % Control, rating) ([2]; sweetpotato whitefly-crawler): A (80-100) |
| CCS(=O)(=O)N1CCCC(C(=O)N(C)c2sc(-c3cccnc3)nc2Cl)C1 (centres unmarked) [Compound 394] | 80 to 100% | 80 to 100% |  |
| C=Cc1nc(-c2cncc(F)c2)sc1N(C)C(=O)OC(C)(C)C [Compound 363, [2-(5-fluoro-pyridin-3-yl)-4-vinyl-thiazol-5-yl]-methyl-carbamic acid-tert-butyl ester] | < 80% | 80 to 100% |  |
| CCc1nc(-c2cccnc2)sc1N(C)C(=O)C(C)CSC (centres unmarked) [Compound 50] | 80 to 100% | 80 to 100% |  |
| CN(C(=O)C1CCN1C(=O)OC(C)(C)C)c1sc(-c2cccnc2)nc1Cl (centres unmarked) [Compound 339] |  |  | MYZUPE 200 ppm (Corrected % Control, rating) ([1]; green peach aphid): B (Less than 80); BEMITA 200 ppm (Corrected % Control, rating) ([2]; sweetpotato whitefly-crawler): A (80-100) |
| CSC(C)(C)CC(=O)N(C)c1sc(-c2cccnc2)nc1Cl [Compound 489] |  |  | pest or weed control at 200 ppm ([1]; Abbott's correction formula): 80 to 100%; pest or weed control at 200 ppm ([2]; Abbott's correction formula): 80 to 100% |
| C/C=C/CCC(=O)Nc1sc(-c2cccnc2)nc1C [Compound 418] | 80 to 100% | 80 to 100% |  |
| CCN(C(=O)c1cnn(C(C)(C)C)c1C)c1sc(-c2cccnc2)nc1Cl [Compound 578] |  |  | pest or weed control at 200 ppm ([1]; Abbott's correction formula): 80 to 100%; pest or weed control at 200 ppm ([2]; Abbott's correction formula): 80 to 100% |
| Cc1nc(-c2cccnc2)sc1N(C)C(=O)c1ccc([S+](C)[O-])cc1 (centres unmarked) [Compound 402] |  |  | MYZUPE 200 ppm (Corrected % Control, rating) ([1]; green peach aphid): A (80-100); BEMITA 200 ppm (Corrected % Control, rating) ([2]; sweetpotato whitefly-crawler): A (80-100) |
| Cc1nc(-c2cccnc2)sc1N(C)C(=O)CCS(C)(=O)=O [Compound 95, 3-methanesulfonyl-N-methyl-N-(4-methyl-2-pyridin-3-yl-thiazol-5-yl)-propionamide] | 80 to 100% | 80 to 100% |  |
| CSCCCC(=O)N(C)c1sc(-c2cccnc2)nc1Cl [Compound 371] | 80 to 100% | 80 to 100% |  |
| CCN(C(=O)CC(C)(C)SC)c1sc(-c2cncc(F)c2)nc1Cl [Compound 447] |  |  | pest or weed control at 200 ppm ([1]; Abbott's correction formula): 80 to 100%; pest or weed control at 200 ppm ([2]; Abbott's correction formula): 80 to 100% |
